Data: patent US5057146A (priority 1986, dated 1991)
Read-outs that look alike come from different tables or passages of the source.

Legend:
[1] = test system: Puccinia recondita; experiment: foliar fungal disease control, Puccinia recondita on wheat; type: in vivo
Description: (§1) The compounds were tested against a variety of foliar fungal diseases of plants. The technique employed was as follows.
(§2) The plants were grown in John Innes Potting Compost (No 1 or 2) in 4 cm diameter minipots. The test compounds were formulated either by bead milling with aqueous Dispersol T or as a solution in acetone or acetone/ethanol which was diluted to the required concentration immediately before use. […] The sprays were applied to maximum retention and the root drenches to a final concentration equivalent to approximately 40 ppm a.i./dry soil. Tween 20, to give a final concentration of 0.05%, was added when the sprays were applied to cereals.
(§3) For most of the tests the compound was applied to the soil (roots) and to the foliage (by spraying) one or two days before the plant was inoculated with the disease. An exception was the test on Erysiphe graminis in which the plants were inoculated 24 hours before treatment. Foliar pathogens were applied by spray as spore suspensions onto the leaves of test plants. After inoculation, the plants were put into an appropriate environment to allow infection to proceed and then incubated until the disease was ready for assessment. The period between inoculation and assessment varied from four to fourteen days according to the disease and environment.
(§4) The disease control was recorded by the following grading: […]

[2] = test system: Pyricularia oryzae; type: in vivo, Pyricularia oryzae (rice)
[3] = test system: Musca domestica (houseflies - adults); experiment: pest mortality, Musca domestica, contact test; type: in vivo; details: 500 ppm, cotton wool/sugar, duration 1 day
Description: (§5) The activity of each compound was determined using a variety of insect mites and nematode pests. The compound was used in the form of liquid preparations containing from 100 to 500 parts per million (ppm) by weight of the compound. The preparations were made by dissolving the compound in acetone and diluting the solutions with water containing 0.1% by weight of a wetting agent sold under the trade name "SYNPERONIC" NX until the liquid preparations contained the required concentration of the product. "SYNPERONIC" is a Registered Trade Mark.
(§6) The test procedure adopted with regard to each pest was basically the same and comprised supporting a number of the pests on a medium which was usually a host plant or a food stuff on which the pests feed, and treating either or both the pests and the medium with the preparations. The mortality of the pests was then assessed at periods usually varying from one to seven days after the treatment. […]

[4] = test system: Tetranychus uritcae (spider mites and ova); experiment: pest mortality, Tetranychus uritcae, contact test; type: in vivo; details: 500 ppm, French bean leaf, duration 3 days
Description: as §5, §6

[5] = test system: Plasmopara viticola; experiment: foliar fungal disease control, Plasmopara viticola on vine; type: in vivo
Description: as §1, §2, §3, §4

[6] = test system: Diabrotica balteata (rootworm larvae); experiment: pest mortality, Diabrotica balteata, residual test; type: in vivo; details: 500 ppm, filter paper/maize seed, duration 3 days
Description: as §5, §6

[7] = test system: Cercospora arachidicola; experiment: foliar fungal disease control, Cercospora arachidicola on peanut; type: in vivo
Description: as §1, §2, §3, §4

[8] = test system: Venturia inaequalis; experiment: foliar fungal disease control, Venturia inaequalis on apple; type: in vivo
Description: as §1, §2, §3, §4

[9] = test system: Chilo partellus (maize stem borers); experiment: pest mortality, Chilo partellus, residual test; type: in vivo; details: 500 ppm, oil seed rape leaf, duration 3 days
Description: as §5, §6

[10] = test system: Erysiphe graminis hordei; experiment: foliar fungal disease control, Erysiphe graminis hordei on barley; type: in vivo; details: inoculated 24 hours before treatment
Description: as §1, §2, §3, §4

[11] = test system: Phytophthora infestans; type: in vivo, Phytophthora infestans (tomato)
[12] = 100 ppm foliar spray plus root drench approx. 40 ppm a.i./dry soil

In the case of `CO/C=C(/C(=O)OC)c1ccccc1Oc1ccc(Cl)cn1` [Compound 14 (Table I), (E)-methyl 2-[2'-(5"-chloropyridin-2"-yloxy)phenyl]-3-methoxyacrylate], the “disease control grading, Puccinia recondita (wheat)” value (from here on “disease control grading … (wheat)”) [1, 12] is reported as 4, the “disease control grading, Pyricularia oryzae (rice)” value (“disease control grading … (rice)” below) [2, 12] is reported as 4 and the “grading of mortality, MD” value [3] is reported as 9 (80-100% mortality). For the same compound, the “grading of mortality, TUe” value [4] was 0 (less than 50% mortality), the “disease control grading, Plasmopara viticola (vine)” value (from here on “disease control grading … (vine)”) [5, 12] was 4 and the “grading of mortality, DB” value [6] was 5 (50-79% mortality). The “disease control grading, Cercospora arachidicola (peanut)” value (shortened to “disease control grading … (peanut)”) [7, 12] was 4, the “disease control grading, Venturia inaequalis (apple)” value (from here on “disease control grading … (apple)”) [8, 12] was 2 (6-25% of disease on untreated plants) and the “grading of mortality, CP” value [9] was 9 (80-100% mortality). For the same compound, the “disease control grading, Erysiphe graminis hordei (barley)” value (“disease control grading … (barley)” below) [10, 12] was 4.
For `CO/C=C(/C(=O)OC)c1ccccc1Oc1ccc(Br)cn1` [Compound 15 (Table I)], the “disease control grading … (wheat)” value [1, 12] was 4, the “disease control grading … (rice)” value [2, 12] was 3 (trace-5% of disease on untreated plants) and the “grading of mortality, MD” value [3] was 0 (less than 50% mortality). For the same compound, the “grading of mortality, TUe” value [4] was 0 (less than 50% mortality), the “disease control grading … (vine)” value [5, 12] was 4 and the “grading of mortality, DB” value [6] was 9 (80-100% mortality). For the same compound, the “disease control grading … (peanut)” value [7, 12] was 3 (trace-5% of disease on untreated plants) and the “disease control grading … (barley)” value [10, 12] was 4.
In the case of `CO/C=C(/C(=O)OC)c1ccccc1Oc1ncc(Cl)cn1` [Compound 67 (Table I)], the “disease control grading … (wheat)” value ([1]; 40 ppm foliar spray only) is reported as 3 (trace-5% of disease on untreated plants), the “disease control grading … (rice)” value ([2]; 40 ppm foliar spray only) is reported as 0 (60-100% of disease on untreated plants) and the “disease control grading, Phytophthora infestans (tomato)” value (“disease control grading … (tomato)” below) ([11]; 40 ppm foliar spray only) is reported as 0 (60-100% of disease on untreated plants). The “disease control grading … (vine)” value ([5]; 40 ppm foliar spray only) was 4, the “disease control grading … (peanut)” value ([7]; 40 ppm foliar spray only) was 4 and the “disease control grading … (apple)” value ([8]; 40 ppm foliar spray only) was 0 (60-100% of disease on untreated plants). For the same compound, the “disease control grading … (barley)” value ([10]; 40 ppm foliar spray only) was 2 (6-25% of disease on untreated plants).
For `CO/C=C(/C(=O)OC)c1ccccc1Oc1cc(F)nc(F)n1` [Compound 138 (Table I)], the “disease control grading … (wheat)” value [1, 12] was 4, the “disease control grading … (rice)” value [2, 12] was 0 (60-100% of disease on untreated plants) and the “disease control grading … (tomato)” value [11, 12] was 0 (60-100% of disease on untreated plants). The “disease control grading … (vine)” value [5, 12] was 4, the “disease control grading … (peanut)” value [7, 12] was 0 (60-100% of disease on untreated plants) and the “disease control grading … (apple)” value [8, 12] was 3 (trace-5% of disease on untreated plants). For the same compound, the “disease control grading … (barley)” value [10, 12] was 0 (60-100% of disease on untreated plants).
In the case of `CO/C=C(/C(=O)OC)c1ccccc1Oc1cc(C(F)(F)F)ccn1` [Compound 11 (Table I)], the “disease control grading … (wheat)” value ([1]; 25 ppm foliar spray only) is reported as 3 (trace-5% of disease on untreated plants), the “disease control grading … (rice)” value ([2]; 25 ppm foliar spray only) is reported as 2 (6-25% of disease on untreated plants) and the “disease control grading … (tomato)” value ([11]; 25 ppm foliar spray only) is reported as 4. For the same compound, the “disease control grading … (vine)” value ([5]; 25 ppm foliar spray only) was 4, the “disease control grading … (peanut)” value ([7]; 25 ppm foliar spray only) was 0 (60-100% of disease on untreated plants) and the “disease control grading … (apple)” value ([8]; 25 ppm foliar spray only) was 4. The “disease control grading … (barley)” value ([10]; 25 ppm foliar spray only) was 4.
`CO/C=C(/C(=O)OC)c1ccccc1Oc1cccc(C(F)(F)F)n1` [Compound 22 (Table I)] was tested, and the “disease control grading … (wheat)” value [1, 12] was 4, the “disease control grading … (rice)” value [2, 12] was 4 and the “disease control grading … (tomato)” value [11, 12] was 3 (trace-5% of disease on untreated plants). The “disease control grading … (vine)” value [5, 12] was 4, the “disease control grading … (peanut)” value [7, 12] was 4 and the “disease control grading … (apple)” value [8, 12] was 4. The “disease control grading … (barley)” value [10, 12] was 4.
With `CO/C=C(/C(=O)OC)c1ccccc1Oc1cc(Cl)nc(Cl)n1` [Compound 140 (Table I)] the “disease control grading … (wheat)” value [1, 12] was 2 (6-25% of disease on untreated plants), the “disease control grading … (rice)” value [2, 12] was 0 (60-100% of disease on untreated plants) and the “disease control grading … (tomato)” value [11, 12] was 0 (60-100% of disease on untreated plants). The “disease control grading … (vine)” value [5, 12] was 4, the “disease control grading … (peanut)” value [7, 12] was 0 (60-100% of disease on untreated plants) and the “disease control grading … (apple)” value [8, 12] was 0 (60-100% of disease on untreated plants). For the same compound, the “disease control grading … (barley)” value [10, 12] was 0 (60-100% of disease on untreated plants).
For `CO/C=C(/C(=O)OC)c1ccccc1Oc1ccc(C)cn1` [Compound 16 (Table I)], the “disease control grading … (wheat)” value [1, 12] was 2 (6-25% of disease on untreated plants), the “disease control grading … (rice)” value [2, 12] was 4 and the “disease control grading … (tomato)” value [11, 12] was 4. For the same compound, the “disease control grading … (vine)” value [5, 12] was 4, the “disease control grading … (peanut)” value [7, 12] was 4 and the “disease control grading … (apple)” value [8, 12] was 4. The “disease control grading … (barley)” value [10, 12] was 4.
`CO/C=C(/C(=O)OC)c1ccccc1Oc1nccc(Cl)n1` [Compound 61 (Table I), (E)-methyl 2-[2'-(4"-chloropyrimidin-2"-yloxy)phenyl]-3-methoxyacrylate] was tested, and the “disease control grading … (wheat)” value [1, 12] was 3 (trace-5% of disease on untreated plants), the “disease control grading … (rice)” value [2, 12] was 0 (60-100% of disease on untreated plants) and the “disease control grading … (tomato)” value [11, 12] was 0 (60-100% of disease on untreated plants). For the same compound, the “disease control grading … (vine)” value [5, 12] was 1 (26-59% of disease on untreated plants), the “disease control grading … (peanut)” value [7, 12] was 4 and the “disease control grading … (apple)” value [8, 12] was 4. The “disease control grading … (barley)” value [10, 12] was 4.
